Literature values, collected in patent US6498171B2, “Hydroxyomeprazole compositions” (Sepracor Inc., priority 1998, dated 2002).

Columns and labels:
[1] = poor metabolizers vs extensive metabolizers, serum
isolated gastric glands = details: read-out: IC50, inhibitory effect on aminopyrine uptake
[2] = humans

Row | SMILES | 8-hour AUC, poor metabolizers relative to extensive metabolizers [1] | IC50 (isolated gastric glands) [µM] | Cmax is at (time) [2] [h] | serum half-life ([2]; highly variable) [min]
1 | COc1ccc2nc(S(=O)(=O)Cc3ncc(C)c(OC)c3C)[nH]c2c1 [omeprazole sulfone] | more than 10 times higher | – | – | –
2 | COc1ccc2[nH]c([S+]([O-])Cc3ncc(CO)c(OC)c3C)nc2c1 (racemic) [racemic hydroxyomeprazole] | – | 33 | – | –
3 | COc1ccc2[nH]c([S+]([O-])Cc3ncc(C)c(OC)c3C)nc2c1 (racemic) [racemic omeprazole, Omeprazole] | – | 0.48 | 0.5 to 3.5 | 30 to 60
